Results as given in ChEMBL document CHEMBL1141467, “Multi-target-directed ligands to combat neurodegenerative diseases” (J Med Chem, 2008).
One block for each molecule: values may come before it.

How the values were obtained:
[1] = biological target: T1, Acetylcholinesterase (Homo sapiens, UniProt P22303)
[2] = biological target: T2, Amine oxidase [flavin-containing] A (Homo sapiens, UniProt P21397)
T2 sequence (P21397 whole entry): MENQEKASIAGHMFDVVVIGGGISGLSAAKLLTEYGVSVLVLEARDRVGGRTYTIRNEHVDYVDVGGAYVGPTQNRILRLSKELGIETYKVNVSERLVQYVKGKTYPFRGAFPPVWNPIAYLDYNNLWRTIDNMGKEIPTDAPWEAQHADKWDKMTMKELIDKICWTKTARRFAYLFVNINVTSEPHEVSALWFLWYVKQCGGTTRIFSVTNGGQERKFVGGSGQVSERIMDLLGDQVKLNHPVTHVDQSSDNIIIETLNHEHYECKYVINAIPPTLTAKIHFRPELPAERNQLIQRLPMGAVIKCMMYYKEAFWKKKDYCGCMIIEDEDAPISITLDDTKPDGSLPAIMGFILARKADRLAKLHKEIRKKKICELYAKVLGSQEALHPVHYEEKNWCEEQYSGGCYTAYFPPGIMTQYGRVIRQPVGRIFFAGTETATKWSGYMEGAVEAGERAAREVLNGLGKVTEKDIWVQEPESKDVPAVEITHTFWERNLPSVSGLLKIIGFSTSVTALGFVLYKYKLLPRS

[3] = biological target: T3, Amine oxidase [flavin-containing] B (Homo sapiens, UniProt P27338)
T3 sequence (P27338 whole entry): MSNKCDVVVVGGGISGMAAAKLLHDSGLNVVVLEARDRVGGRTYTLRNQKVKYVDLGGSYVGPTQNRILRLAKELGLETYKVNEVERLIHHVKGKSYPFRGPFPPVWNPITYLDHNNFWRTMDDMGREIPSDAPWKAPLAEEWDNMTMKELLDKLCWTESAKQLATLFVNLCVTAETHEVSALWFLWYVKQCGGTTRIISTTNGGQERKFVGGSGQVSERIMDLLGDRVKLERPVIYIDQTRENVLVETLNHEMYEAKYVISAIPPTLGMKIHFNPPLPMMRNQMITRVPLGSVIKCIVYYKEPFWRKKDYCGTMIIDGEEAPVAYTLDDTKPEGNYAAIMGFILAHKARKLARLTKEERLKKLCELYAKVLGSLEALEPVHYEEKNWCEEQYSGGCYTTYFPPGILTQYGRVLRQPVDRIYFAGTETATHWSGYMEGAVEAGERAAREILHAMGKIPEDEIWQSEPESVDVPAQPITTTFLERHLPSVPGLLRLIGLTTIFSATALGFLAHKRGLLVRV

[4] = biological target: T4, 5-hydroxytryptamine receptor 3A (Homo sapiens, UniProt P46098)
T4 sequence (P46098 whole entry): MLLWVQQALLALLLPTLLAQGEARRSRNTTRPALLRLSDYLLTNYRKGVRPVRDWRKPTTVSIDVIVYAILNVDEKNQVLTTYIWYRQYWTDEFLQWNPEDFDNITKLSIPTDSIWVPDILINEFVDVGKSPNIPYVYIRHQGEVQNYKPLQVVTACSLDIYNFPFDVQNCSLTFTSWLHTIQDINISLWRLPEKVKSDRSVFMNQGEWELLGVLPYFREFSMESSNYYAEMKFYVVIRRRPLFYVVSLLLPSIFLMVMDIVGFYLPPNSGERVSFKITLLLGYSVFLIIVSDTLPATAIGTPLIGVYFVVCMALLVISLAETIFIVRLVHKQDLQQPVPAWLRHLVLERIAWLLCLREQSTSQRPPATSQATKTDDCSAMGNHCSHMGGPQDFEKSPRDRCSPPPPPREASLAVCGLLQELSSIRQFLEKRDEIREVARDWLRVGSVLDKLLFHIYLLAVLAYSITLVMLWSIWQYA
Description: Binding affinity to 5HT3 receptor

[5] = Inhibition of amyloid beta aggregation at 100 uM
[6] = biological target: D(2) dopamine receptor (Homo sapiens, UniProt P14416); assay: Binding affinity to human dopaminergic D2 receptor
[7] = biological target: D(3) dopamine receptor (Homo sapiens, UniProt P35462); assay: Binding affinity to human dopaminergic D3 receptor
[8] = biological target: T5, D(4) dopamine receptor (Homo sapiens, UniProt P21917); assay: Binding affinity to human dopaminergic D4 receptor
T5 sequence (P21917 whole entry): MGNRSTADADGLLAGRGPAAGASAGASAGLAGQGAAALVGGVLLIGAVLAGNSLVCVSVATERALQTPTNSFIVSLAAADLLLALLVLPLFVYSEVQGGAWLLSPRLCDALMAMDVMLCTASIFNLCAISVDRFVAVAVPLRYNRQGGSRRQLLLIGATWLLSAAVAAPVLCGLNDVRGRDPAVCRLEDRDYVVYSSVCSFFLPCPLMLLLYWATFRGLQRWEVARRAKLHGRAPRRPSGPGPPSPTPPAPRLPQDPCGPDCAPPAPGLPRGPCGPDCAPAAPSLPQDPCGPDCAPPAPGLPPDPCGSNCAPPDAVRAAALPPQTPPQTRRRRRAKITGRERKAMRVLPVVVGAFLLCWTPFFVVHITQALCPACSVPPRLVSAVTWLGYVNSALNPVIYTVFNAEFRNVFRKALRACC

[9] = biological target: T6, 5-hydroxytryptamine receptor 1A (Homo sapiens, UniProt P08908); assay: Binding affinity to human 5HT1A receptor
T6 sequence (P08908 whole entry): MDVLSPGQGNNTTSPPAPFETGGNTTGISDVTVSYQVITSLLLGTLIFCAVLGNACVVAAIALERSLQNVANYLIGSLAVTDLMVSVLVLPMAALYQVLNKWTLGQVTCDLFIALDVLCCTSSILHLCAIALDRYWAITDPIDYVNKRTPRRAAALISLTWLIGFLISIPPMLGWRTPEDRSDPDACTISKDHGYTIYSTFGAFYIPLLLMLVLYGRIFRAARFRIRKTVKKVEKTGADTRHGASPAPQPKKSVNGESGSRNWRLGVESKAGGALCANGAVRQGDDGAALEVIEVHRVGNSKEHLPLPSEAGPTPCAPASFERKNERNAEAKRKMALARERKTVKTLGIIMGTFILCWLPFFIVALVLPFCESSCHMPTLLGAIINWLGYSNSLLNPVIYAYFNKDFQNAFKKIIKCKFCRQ

[10] = organism: Homo sapiens; assay: Selectivity for human Ach over human BuCh
[11] = Inhibition of metal-induced amyloid beta aggregation at 50 uM; design: scale not given: the % may be the effect or the level left
[12] = biological target: T7, Muscarinic acetylcholine receptor M2 (Homo sapiens) (UniProt P08172); assay: Antagonist activity at muscarinic M2 receptor; assay type: functional
T7 sequence (whole entry): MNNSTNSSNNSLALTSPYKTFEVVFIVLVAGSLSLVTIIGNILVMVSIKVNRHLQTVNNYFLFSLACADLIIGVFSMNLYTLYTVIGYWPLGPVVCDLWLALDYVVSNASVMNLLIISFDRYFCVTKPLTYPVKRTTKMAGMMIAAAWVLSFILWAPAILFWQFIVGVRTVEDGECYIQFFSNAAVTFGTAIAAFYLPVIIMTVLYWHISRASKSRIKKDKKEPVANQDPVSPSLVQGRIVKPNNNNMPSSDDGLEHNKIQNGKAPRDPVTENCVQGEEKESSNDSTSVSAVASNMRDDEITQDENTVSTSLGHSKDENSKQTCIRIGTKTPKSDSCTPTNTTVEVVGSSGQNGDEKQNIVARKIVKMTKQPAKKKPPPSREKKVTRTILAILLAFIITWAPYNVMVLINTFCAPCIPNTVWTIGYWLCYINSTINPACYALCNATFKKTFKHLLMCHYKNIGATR

[13] = biological target: Beta-secretase 1 (Homo sapiens, UniProt P56817); assay: Inhibition of BACE1
[14] = biological target: T1, Acetylcholinesterase; assay: Inhibition of human AchE induced amyloid beta42 aggregation
[15] = Protection against ROS induced by oxidative stress at 10 uM in neuronal cells; assay type: functional
[16] = biological target: T1, Acetylcholinesterase; remark: listed apart in the source
Description: Inhibition of human AchE-induced amyloid beta aggregation

[17] = Inhibition of zinc-induced amyloid beta aggregation at 25 uM
[18] = biological target: Sodium-dependent serotonin transporter (Homo sapiens, UniProt P31645)
[19] = substrate: CCN(CCCCCCNC1=CC(=O)C(NCCCCCCN(CC)Cc2ccccc2OC)=CC1=O)Cc1ccccc1OC; assay: Binding affinity to NQQ1

T1 sequence (P22303 whole entry): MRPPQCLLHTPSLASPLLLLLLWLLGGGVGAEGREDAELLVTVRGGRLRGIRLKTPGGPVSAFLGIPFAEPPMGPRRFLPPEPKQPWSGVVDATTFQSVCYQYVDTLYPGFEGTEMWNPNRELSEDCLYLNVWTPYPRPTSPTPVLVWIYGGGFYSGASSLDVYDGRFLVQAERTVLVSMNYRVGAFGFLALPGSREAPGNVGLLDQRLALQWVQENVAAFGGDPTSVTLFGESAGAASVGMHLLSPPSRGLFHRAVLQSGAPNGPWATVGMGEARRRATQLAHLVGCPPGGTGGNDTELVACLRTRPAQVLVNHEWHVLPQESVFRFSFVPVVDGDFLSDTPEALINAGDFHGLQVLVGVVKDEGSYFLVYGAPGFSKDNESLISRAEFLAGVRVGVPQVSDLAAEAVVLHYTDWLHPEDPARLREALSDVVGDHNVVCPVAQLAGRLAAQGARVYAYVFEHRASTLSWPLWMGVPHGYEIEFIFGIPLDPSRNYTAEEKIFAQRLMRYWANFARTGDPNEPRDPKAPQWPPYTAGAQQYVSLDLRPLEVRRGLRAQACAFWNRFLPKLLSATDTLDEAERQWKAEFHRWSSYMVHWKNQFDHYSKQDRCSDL
Sequence of Sodium-dependent serotonin transporter (P31645 whole entry): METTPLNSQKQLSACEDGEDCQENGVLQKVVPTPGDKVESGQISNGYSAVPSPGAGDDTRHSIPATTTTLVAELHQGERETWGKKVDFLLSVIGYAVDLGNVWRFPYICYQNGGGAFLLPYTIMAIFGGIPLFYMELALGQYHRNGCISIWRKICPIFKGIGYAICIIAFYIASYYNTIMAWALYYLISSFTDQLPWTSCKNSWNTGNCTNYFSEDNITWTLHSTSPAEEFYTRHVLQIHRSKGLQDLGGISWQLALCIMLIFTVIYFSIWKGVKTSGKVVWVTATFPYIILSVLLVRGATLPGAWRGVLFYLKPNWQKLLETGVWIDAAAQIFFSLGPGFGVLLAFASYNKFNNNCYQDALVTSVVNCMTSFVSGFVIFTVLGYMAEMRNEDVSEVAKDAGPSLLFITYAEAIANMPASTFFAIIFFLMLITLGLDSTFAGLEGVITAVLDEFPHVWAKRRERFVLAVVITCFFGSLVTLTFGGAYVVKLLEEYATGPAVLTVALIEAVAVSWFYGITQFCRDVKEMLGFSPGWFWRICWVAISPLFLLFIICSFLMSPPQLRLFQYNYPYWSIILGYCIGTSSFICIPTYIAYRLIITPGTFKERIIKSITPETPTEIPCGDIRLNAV
Sequence of Beta-secretase 1 (P56817 whole entry): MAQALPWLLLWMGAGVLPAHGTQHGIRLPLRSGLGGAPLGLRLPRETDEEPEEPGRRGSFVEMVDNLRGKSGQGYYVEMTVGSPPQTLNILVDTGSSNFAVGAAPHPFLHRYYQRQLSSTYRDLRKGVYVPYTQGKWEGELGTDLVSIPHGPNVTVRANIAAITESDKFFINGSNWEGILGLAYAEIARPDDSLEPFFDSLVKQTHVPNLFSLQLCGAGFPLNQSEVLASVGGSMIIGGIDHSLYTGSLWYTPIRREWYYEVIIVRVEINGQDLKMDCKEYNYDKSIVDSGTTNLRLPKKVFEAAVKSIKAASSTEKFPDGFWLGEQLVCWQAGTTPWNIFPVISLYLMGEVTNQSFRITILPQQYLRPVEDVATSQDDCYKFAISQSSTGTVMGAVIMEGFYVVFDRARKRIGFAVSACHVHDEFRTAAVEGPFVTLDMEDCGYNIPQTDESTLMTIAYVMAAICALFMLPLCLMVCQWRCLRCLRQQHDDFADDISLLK
Sequence of D(2) dopamine receptor (P14416 whole entry): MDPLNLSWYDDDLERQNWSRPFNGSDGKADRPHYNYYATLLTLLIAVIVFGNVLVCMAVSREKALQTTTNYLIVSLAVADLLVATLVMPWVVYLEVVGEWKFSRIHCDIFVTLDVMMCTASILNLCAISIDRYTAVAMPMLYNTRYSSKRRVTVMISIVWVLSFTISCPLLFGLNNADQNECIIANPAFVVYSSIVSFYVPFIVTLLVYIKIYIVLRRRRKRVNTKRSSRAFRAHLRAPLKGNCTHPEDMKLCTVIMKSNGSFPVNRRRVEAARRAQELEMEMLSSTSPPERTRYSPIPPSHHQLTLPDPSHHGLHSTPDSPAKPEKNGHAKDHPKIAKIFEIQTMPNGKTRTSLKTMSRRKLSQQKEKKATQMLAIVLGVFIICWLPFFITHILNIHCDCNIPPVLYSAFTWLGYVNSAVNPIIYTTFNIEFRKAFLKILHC
Sequence of D(3) dopamine receptor (P35462 whole entry): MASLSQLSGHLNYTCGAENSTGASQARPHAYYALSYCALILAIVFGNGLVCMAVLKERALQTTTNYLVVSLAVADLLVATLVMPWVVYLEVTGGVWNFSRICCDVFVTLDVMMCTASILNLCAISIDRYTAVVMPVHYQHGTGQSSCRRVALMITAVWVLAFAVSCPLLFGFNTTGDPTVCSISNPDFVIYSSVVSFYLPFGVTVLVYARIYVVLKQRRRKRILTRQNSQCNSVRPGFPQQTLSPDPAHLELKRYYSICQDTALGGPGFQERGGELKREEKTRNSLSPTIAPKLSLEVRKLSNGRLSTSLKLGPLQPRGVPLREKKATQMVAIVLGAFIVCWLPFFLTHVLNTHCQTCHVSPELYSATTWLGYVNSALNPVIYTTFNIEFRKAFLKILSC

Molecule: COc1ccccc1CNCCCNCCCNCCC[n+]1c(-c2ccccc2)c2cc(N)ccc2c2ccc(N)cc21
- IC50 [1]: 952 nM

- IC50 [2]: 2390 nM
- IC50 [3]: 4240 nM
Molecule: C#CCNCc1ccnc2c(O)cccc12

- Ki [4]: 5.6 nM
Molecule: Cc1c(N2CCN(C)CC2)nc2ccccc2c1C(=O)NCCCCCCCNc1c2c(nc3ccccc13)CCCC2

- IC50 [2]: 300000 nM
- IC50 [3]: 64200 nM
Molecule: C#CCN1CCN(Cc2ccnc3c(O)cccc23)CC1

Molecule: O=C(CCc1c[nH]c2ccccc12)NCCCCCCNc1c2c(nc3cc(Cl)ccc13)CCCC2
- IC50 [1]: 0.02 nM
- IC50 [5]: 2000 nM

- IC50 [6]: < 6 nM
- IC50 [7]: < 6 nM
- IC50 [8]: < 6 nM
- IC50 [9]: < 6 nM
- IC50 [4]: < 6 nM
Molecule: Fc1ccc(-c2cncc(CNC[C@H]3CCc4ccccc4O3)c2)cc1 [SARIZOTAN]

- IC50 [2]: 37 nM
- IC50 [3]: 57 nM
Molecule: C#CCN(C)Cc1ccnc2c(O)cccc12

Molecule: O=C(CCCCCCNc1c2c(nc3cc(Cl)cc(Cl)c13)CCCC2)NCCc1c[nH]c2ccccc12
- Selectivity ratio [10]: 1000

- Activity [11]: > 50%
Molecule: Cc1c(O[C@@H]2O[C@H](CO)[C@@H](O)[C@H](O)[C@H]2O)c(=O)ccn1C

- IC50 [11]: > 50%
Molecule: CN(CCN(C)Cc1cc(O[C@@H]2O[C@H](CO)[C@@H](O)[C@H](O)[C@H]2O)cc(C(C)(C)C)c1O)Cc1cc(O[C@H]2O[C@@H](CO)[C@H](O)[C@@H](O)[C@@H]2O)cc(C(C)(C)C)c1O

Molecule: COc1ccccc1CN(C)CCCCCC(=O)N(C)CCCCCCCCN(C)C(=O)CCCCCN(C)Cc1ccccc1OC
- Kb [12]: 410 nM

Molecule: CCN(CCCCCCNC1=CC(=O)C(NCCCCCCN(CC)Cc2ccccc2OC)=CC1=O)Cc1ccccc1OC [MEMOQUIN]
- IC50 [13]: 108 nM
- IC50 [14]: 5930 nM

Molecule: CCN(CCCCCC(=O)N1CCC(C2CCN(C(=O)CCCCCN(CC)Cc3ccccc3OC)CC2)CC1)Cc1ccccc1OC
- Kb [12]: 660 nM

Molecule: O=C(CCCCC1CCSS1)NCCCNc1c2c(nc3cc(Cl)ccc13)CCCC2 (stereo not given) [LIPOCRINE]
- IC50 [1]: 0.25 nM
- Activity [15]: 62%
- IC50 [16]: 45000 nM

Molecule: O=C(CCc1c[nH]c2ccccc12)NCCCCCCCNc1c2c(nc3cc(Cl)ccc13)CCCC2
- IC50 [1]: 0.06 nM
- Activity [5]: 65%
- IC50 [16]: 9000 nM

Molecule: Clc1cccc(Cl)c1CO/N=C/c1cc[n+](CCC[n+]2ccc(/C=N/OCc3c(Cl)cccc3Cl)cc2)cc1
- IC50 [1]: 6000 nM
- Activity [5]: 55%

- IC50 [17]: > 50%
Molecule: O=C(O)CN(CCN(CC(=O)O)CC(=O)Nc1ccc(-c2nc3ccccc3s2)cc1)CCN(CC(=O)O)CC(=O)Nc1ccc(-c2nc3ccccc3s2)cc1

Molecule: c1ccc2c(NCCc3ccc(OCCCN4CCCCC4)cc3)c3c(nc2c1)CCCC3
- IC50 [1]: 2.6 nM
- Ki [4]: 0.33 nM

Molecule: C#CCN[C@@H]1CCc2cc(Cl)c(OC(=O)N(C)CCC)cc21
- IC50 [1]: 43900 nM
- IC50 [2]: 375000 nM
- IC50 [3]: 32000 nM

Molecule: Clc1cccc(Cl)c1CO/N=C/c1cc[n+](CCCc2ccccc2)cc1
- IC50 [1]: 180 nM
- Activity [5]: 60%

Molecule: CCN(C)C(=O)Oc1cccc([C@H](C)N(C)C)c1 [RIVASTIGMINE]
- IC50 [18]: > 1000 nM

Molecule: C#CCN(C)C(C)Cc1cccc(OC(=O)N(C)CCCCCC)c1 (stereo not given)
- IC50 [2]: 20000 nM
- IC50 [3]: 1500 nM

Molecule: C#CCN[C@@H]1CCc2ccc(OC(=O)N(C)CC)cc21 [LADOSTIGIL]
- IC50 [1]: 52400 nM
- IC50 [2]: 85000 nM
- IC50 [3]: 120000 nM

B1: Quinone oxidoreductase (Homo sapiens), Q08257 (protein)
chain: MATGQKLMRAVRVFEFGGPEVLKLRSDIAVPIPKDHQVLIKVHACGVNPVETYIRSGTYSRKPLLPYTPGSDVAGVIEAVGDNASAFKKGDRVFTSSTISGGYAEYALAADHTVYKLPEKLDFKQGAAIGIPYFTAYRALIHSACVKAGESVLVHGASGGVGLAACQIARAYGLKILGTAGTEEGQKIVLQNGAHEVFNHREVNYIDKIKKYVGEKGIDIIIEMLANVNLSKDLSLLSHGGRVIVVGSRGTIEINPRDTMAKESSIIGVTLFSSTKEEFQQYAAALQAGMEIGWLKPVIGSQYPLEKVAEAHENIIHGSGATGKMILLL
- Km [19]: 12.7 µM
